The source made the active and inactive calls. No cut-off for these calls is given here.
How the values were obtained:
Format in all cases: cell-based
[1] = target: NAD(P)H dehydrogenase [quinone] 1 (Mus musculus) (UniProt Q64669); experiment: Induction of NADPH-dependent quinone reductase activity in mouse Hepa-1c1c7 cells assessed as induction ratio at 28.4 uM after 48 hrs by MTT assay relative to DMSO control
[2] = (§1) Inhibition of NF-kappaB activity in TNF-alpha-induced human HEK293 cells by luciferase assay
HEK293 = experiment: as §1; settings: dose or concentration not given here
[3] = target: NAD(P)H dehydrogenase [quinone] 1 (Mus musculus) (UniProt Q64669); experiment: Induction of NADPH-dependent quinone reductase activity in mouse Hepa-1c1c7 cells assessed as concentration to double activity after 48 hrs by MTT assay
[4] = target: NAD(P)H dehydrogenase [quinone] 1 (Mus musculus) (UniProt Q64669); experiment: Induction of NADPH-dependent quinone reductase activity in mouse Hepa-1c1c7 cells at 28.4 uM after 48 hrs by MTT assay

Chain of NAD(P)H dehydrogenase [quinone] 1 (Mus musculus) (Q64669 whole entry): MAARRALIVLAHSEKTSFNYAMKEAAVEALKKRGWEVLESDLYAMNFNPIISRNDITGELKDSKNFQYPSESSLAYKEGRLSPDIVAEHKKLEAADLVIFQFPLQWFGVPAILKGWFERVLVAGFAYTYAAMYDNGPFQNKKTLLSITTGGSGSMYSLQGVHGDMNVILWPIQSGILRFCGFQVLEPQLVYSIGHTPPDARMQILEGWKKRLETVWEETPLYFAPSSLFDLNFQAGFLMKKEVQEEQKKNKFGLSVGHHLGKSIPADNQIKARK

SMILES | Ratio [1] | IC50 [2] | inhibition (HEK293) | CD [3] | Activity [4]
CC(=O)N[C@H]1CC(=O)OC[C@H](O)c2ccc3c(c2Cl)C2=CC=C[C@]2(O[C@@H]2OC(C)(C)[C@@H](N(C)C)[C@@H](O)[C@H]2O)[C@@H]3Oc2c(O)cc1cc2Cl [FIJIOLIDE A] | 3.5 | 0.57 µM | 70.3% | 1.8 µM | 
O=c1cc(-c2ccc(Br)cc2)oc2ccccc12 |  |  |  | 0.013 µM | 
CN(C)[C@H]1[C@@H](O)[C@@H](O)[C@H](O[C@]23C=CC=C2c2c4ccc(c2Cl)[C@@H](O)COC(=O)C[C@H](N)c2cc(O)c(c(Cl)c2)O[C@H]43)OC1(C)C |  |  | 46.5% |  | inactive

Source: ChEMBL document CHEMBL1165961, “Fijiolides A and B, inhibitors of TNF-alpha-induced NFkappaB activation, from a marine-derived sediment bacterium of the genus Nocardiopsis” (J Nat Prod, 2010)
